Measurements as given in patent US6355627B1, “Branched cyclodextrin clathrate compound of hinokitiols and composition containing the same” (Takasago International Corporation, priority 1999, dated 2002).
In brackets after ≈: the same amount, converted by molar mass.

Experiments:
[1] = test system: Corynebacterium minutissiumum ATCC 23348; experiment: Antibacterial test, serial double dilution method (MIC); format: cell-based; conditions: Muller-Hilton agar, 37° C., 24 hours, concentration converted into hinokitiol
Source text: (§1) The clathrate compound of the present invention and non-clathrate compounds were each subjected to an antibacterial test. Aerobic and anaerobic bacteria used in the test are as follows:
Cm: Corynebacterium minutissiumum ATCC 23348
(§2) The samples used in the antibacterial test are as follows in which butylparabene was used as a control compound. The concentrations of clathrate compounds were all measured by converting into the concentrations of a hinokitiol. Samples of antibacterial agents
(§3) Method: Serial Double Dilution Method
(§4) As for the culture medium, an aqueous solution containing 38 g/l of a Muller-Hilton agar medium (manufactured by DEFCO) was used for aerobic bacteria and an aqueous solution containing 59 g/l of a GAM agar medium (manufactured by Nissui Pharmaceutical Co., Ltd.) for anaerobic bacteria. Each subject compound was added to each corresponding medium in a manner that the concentration of a hinokitiol was 400 μg/ml and diluted according to the serial double dilution method using the same medium. 10 ml of each resulting medium was poured into a plastic Schale with an inside diameter of 90 mm and was solidified. The solidified medium in the Schale was divided. 0.1 ml of a distilled water suspension containing the subject microorganisms (the number of microorganisms: 10^6-10^9/ml) was inoculated into each compartment and incubated at 37° C. for 24 hours. […]

[2] = test system: Corinebacterium xerosis JCM 1324; experiment: as above; format: cell-based; conditions: Muller-Hilton agar, 37° C., 24 hours; concentration converted into hinokitiol
Source text: as §1
Cx: Corinebacterium xerosis JCM 1324
as §2, §3, §4

[3] = test system: Malassezia furfur IFO 0656; experiment: as above; format: cell-based; conditions: Muller-Hilton agar, 37° C., 24 hours, concentration converted into hinokitiol
Source text: as §1
Mf: Malassezia furfur IFO 0656
as §2, §3, §4

[4] = test system: Staphylococcus aureus IAM 1011; experiment: as above; format: cell-based; conditions: Muller-Hilton agar, 37° C., 24 hours, concentration converted into hinokitiol
Source text: as §1
Sa: Staphylococcus aureus IAM 1011
as §2, §3, §4

[5] = test system: Escherichia coli IFO 3972; experiment: as above; format: cell-based; conditions: Muller-Hilton agar, 37° C., 24 hours, concentration converted into hinokitiol
Source text: as §1
Ec: Escherichia coli IFO 3972
as §2, §3, §4

[6] = test system: Serratia marcessenes IFO 3736; experiment: as above; format: cell-based; conditions: Muller-Hilton agar, 37° C., 24 hours, concentration converted into hinokitiol
Source text: as §1
Sm: Serratia marcessenes IFO 3736
as §2, §3, §4

[7] = test system: Proteus vulgaris IFO 3167; experiment: as above; format: cell-based; conditions: Muller-Hilton agar, 37° C., 24 hours, concentration converted into hinokitiol
Source text: as §1
Pv: Proteus vulgaris IFO 3167
as §2, §3, §4

[8] = Solubility in water at 15° C.; format: physicochemical
Experimental: The solubilities of the above various branched CD clathrate compounds prepared in the above examples and reference example in water at 15° C. are shown in Table 1.

[9] = Evaluation of the heat stability (sublimation); format: physicochemical; conditions: 1000 mg allowed to stand at 90° C. for 20 hours
Source text: The results of the residual weight, sublimation rate (%) and sublimation rate (%) converted into a hinokitiol were shown in Table 4.

[10] = test system: Staphylococcus epidermidis JCM 2414; experiment: Antibacterial test, serial double dilution method (MIC); format: cell-based; conditions: JCM2414, Muller-Hilton agar, 37° C., 24 hours, concentration converted into hinokitiol
Source text: as §1
Se: Staphylococcus epidermidis JCM 2414
as §2, §3, §4

| Structure (SMILES) | MIC, Cm [1] [µg/mL] | MIC, Cx [2] [µg/mL] | MIC, Mf [3] [µg/mL] | MIC, Sa [4] [µg/mL] | MIC, Ec [5] [µg/mL] | MIC, Sm [6] [µg/mL] | MIC, Pv [7] [µg/mL] | Solubility in water [8] [%] | Residual weight [9] [mg] | Sublimation rate [9] [%] | MIC [10] [µg/mL] | MIC ([1]; Corynebacterium, ATCC23348) [µg/mL] | MIC [2] [µg/mL] | MIC ([3]; Malassezia furfur, IFO0656) [µg/mL] | MIC ([4]; Staphylococcus aureus, IAM1011) [µg/mL] | MIC ([5]; Escherichia coli, IFO3972) [µg/mL] | MIC ([6]; Serratia, IFO3736) [µg/mL] | MIC ([7]; Proteus vulgaris, IFO3167) [µg/mL] |
| --- | --- | --- | --- | --- | --- | --- | --- | --- | --- | --- | --- | --- | --- | --- | --- | --- | --- | --- |
| CCCCOC(=O)c1ccc(O)cc1 [Butylparabene] | 100 (≈ 515 µM) | 100 (≈ 515 µM) | 100 (≈ 515 µM) | 100 (≈ 515 µM) | 400 (≈ 2060 µM) | >400 | 100 (≈ 515 µM) | – | – | – | – | – | – | – | – | – | – | – |
| CC(C)c1cccc(=O)c(O)c1 [Hinokitiol] | – | – | – | – | – | – | – | <0.05 | 8 | 99.2 | 50 (≈ 304 µM) | 50 (≈ 304 µM) | 50 (≈ 304 µM) | 50 (≈ 304 µM) | 50 (≈ 304 µM) | 50 (≈ 304 µM) | 200 (≈ 1220 µM) | 50 (≈ 304 µM) |
| CC(C)c1cccc(=O)c([O-])c1.[Na+] [sodium salt of hinokitiol] | – | – | – | – | – | – | – | – | 764 | 23.6 | – | – | – | – | – | – | – | – |
